# Test results: patent US7019109B2, “SSTR1-selective analogs” (The Salk Institute for Bilogical Studies, priority 2001, dated 2006)
# Read-outs that look alike come from different tables or passages of the source. *1 amine or outer side, *2 acyl side, *3 side chain or, on linkers, in order; H or OH if unused. Where a SMILES comes first, the peptide text is derived from it. Bridges are numbered along the chain shown (N, C = ends). [ ]: non-standard residue; d: D form. NMePhe(4-CH2NHiPr) = CN[C@@H](Cc1ccc(CNC(C)C)cc1)C(=O)O; Phe(4-CH2NHiPr) = CC(C)NCc1ccc(C[C@H](N)C(=O)O)cc1; Tyr(3-I) = N[C@@H](Cc1ccc(O)c(I)c1)C(=O)O; X1 = NC(=O)N[C@@H](CS[*:2])C(=O)[*:1]; X2 = NC(=O)N[C@H](CS[*:2])C(=O)[*:1]
# Legend:
# Format in all cases: binding
# [1] = molecular target: T1, human SSTR2 (Homo sapiens, UniProt P30874); assay: Displacement of 125I-[Leu8,D-Trp22,Tyr25]-SRIF-28 from cloned SSTR2 (receptor autoradiography); conditions: for IC50: read-out: IC50 (nM) mSSTR2
# T1 construct: expressed in transfected cells; host or cells: CHO-K1 cells and CCL39 cells
# Procedure: (§1) Generally, recombinant cells expressing the receptor are washed and homogenized to prepare a crude protein homogenate that is frozen, embedded and then cut in 10–20 μm thin sections, as known in this art. Candidate substances, such as potential SRIF agonists and antagonists, are incubated with the tissue sections, and the interaction between the candidate substance and the receptor polypeptide is monitored.
# (§2) Receptor binding assays are performed on cloned SRIF receptors as generally set forth in Reubi, J. C. et al., J. Clin. Endocrinol. […] Med. 2000, 27, 273–282.
# (§3) In vitro Bioassay: The various somatostatin analogs are tested in vitro for their ability to bind to isolated cloned receptors expressed on CHO-K1 cells and CCL39 cells. CHO-K1 cells are grown in Ham's F-12 medium, and CCL39 cells are grown in Dulbecco's modified Eagle's medium/Ham's F-12(1:1) mix, supplemented with 10% fetal bovine serum, 100 U/ml penicillin and 100 μg/ml streptomycin, in humidified air containing 5% CO2 at 37° C.
# (§4) Cells are washed and prepared to produce homogenates as described in detail in Reubi, J. C. et al, Eur. J. Nucl. Med. 2000, 27, 273–282.
# (§5) Receptor autoradiography is performed on 20 μm thick cryostat sections of the membrane pellets, mounted on microscope slides, and then stored at −20° C. […] […] […] IC50 values are calculated after quantification of the data using a computer-assisted image processing system as known in this art.
# [2] = molecular target: T2, human SSTR1 (Homo sapiens, UniProt P30872); assay: Displacement of 125I-[Leu8,D-Trp22,Tyr25]-SRIF-28 from cloned SSTR1 (receptor autoradiography); conditions: for IC50: inhibition of radioligand binding of 125I-[Leu8,D-Trp22,Tyr24]SRIF-28, cloned receptor, table, read-out: IC50 (nM) mSSTR1; for binding strength and selectivity for SSTR1, in words: Peptide No. 27 and 2A after iodination
# T2 construct: expressed in transfected cells; host or cells: CHO-K1 cells and CCL39 cells
# Procedure: as §1, §2, §3, §4
# (§6) Receptor autoradiography is performed on 20 μm thick cryostat sections of the membrane pellets, mounted on microscope slides, and then stored at −20° C. […] Increasing concentrations of the unlabeled peptide are used ranging from 0.1–1000 nM. […] IC50 values are calculated after quantification of the data using a computer-assisted image processing system as known in this art.
# [3] = molecular target: T3, human SSTR3 (Homo sapiens, UniProt P32745); assay: Displacement of 125I-[Leu8,D-Trp22,Tyr25]-SRIF-28 from cloned SSTR3 (receptor autoradiography); conditions: for IC50: read-out: IC50 (nM) mSSTR3
# T3 construct: expressed in transfected cells; host or cells: CHO-K1 cells and CCL39 cells
# Procedure: as §1, §2, §3, §4, §6
# [4] = molecular target: T4, human SSTR4 (Homo sapiens, UniProt P31391); assay: Displacement of 125I-[Leu8,D-Trp22,Tyr25]-SRIF-28 from cloned SSTR4 (receptor autoradiography); conditions: for IC50: read-out: IC50 (nM) mSSTR4
# T4 construct: expressed in transfected cells; host or cells: CHO-K1 cells and CCL39 cells
# Procedure: as §1, §2, §3, §4, §6
# [5] = molecular target: T5, human SSTR5 (Homo sapiens, UniProt P35346); assay: Displacement of 125I-[Leu8,D-Trp22,Tyr25]-SRIF-28 from cloned SSTR5 (receptor autoradiography); conditions: read-out: IC50 (nM) mSSTR5
# T5 construct: expressed in transfected cells; host or cells: CHO-K1 cells and CCL39 cells
# Procedure: as §1, §2, §3, §4, §5
# T1 sequence (P30874 whole entry): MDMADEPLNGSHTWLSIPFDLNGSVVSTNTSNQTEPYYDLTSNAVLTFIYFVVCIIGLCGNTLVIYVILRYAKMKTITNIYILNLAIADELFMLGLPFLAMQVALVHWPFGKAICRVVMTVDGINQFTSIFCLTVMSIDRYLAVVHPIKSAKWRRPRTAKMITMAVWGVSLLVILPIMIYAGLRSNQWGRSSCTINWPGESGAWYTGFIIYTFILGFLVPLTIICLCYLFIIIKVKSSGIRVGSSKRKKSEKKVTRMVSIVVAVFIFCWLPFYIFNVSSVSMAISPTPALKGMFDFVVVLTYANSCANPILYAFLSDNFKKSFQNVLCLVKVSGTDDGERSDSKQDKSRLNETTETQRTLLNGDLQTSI
# T3 sequence (P32745 whole entry): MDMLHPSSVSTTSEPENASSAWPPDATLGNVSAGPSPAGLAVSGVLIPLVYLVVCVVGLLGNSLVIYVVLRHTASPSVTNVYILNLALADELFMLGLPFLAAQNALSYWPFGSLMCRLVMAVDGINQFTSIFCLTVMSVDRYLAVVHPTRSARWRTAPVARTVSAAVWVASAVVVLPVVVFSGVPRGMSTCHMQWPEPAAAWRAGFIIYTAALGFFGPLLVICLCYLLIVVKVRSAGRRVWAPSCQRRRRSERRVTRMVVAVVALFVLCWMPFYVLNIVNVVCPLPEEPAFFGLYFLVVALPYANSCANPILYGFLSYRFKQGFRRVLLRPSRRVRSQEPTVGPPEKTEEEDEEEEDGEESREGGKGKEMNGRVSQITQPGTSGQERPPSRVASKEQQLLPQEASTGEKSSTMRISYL
# T4 sequence (P31391 whole entry): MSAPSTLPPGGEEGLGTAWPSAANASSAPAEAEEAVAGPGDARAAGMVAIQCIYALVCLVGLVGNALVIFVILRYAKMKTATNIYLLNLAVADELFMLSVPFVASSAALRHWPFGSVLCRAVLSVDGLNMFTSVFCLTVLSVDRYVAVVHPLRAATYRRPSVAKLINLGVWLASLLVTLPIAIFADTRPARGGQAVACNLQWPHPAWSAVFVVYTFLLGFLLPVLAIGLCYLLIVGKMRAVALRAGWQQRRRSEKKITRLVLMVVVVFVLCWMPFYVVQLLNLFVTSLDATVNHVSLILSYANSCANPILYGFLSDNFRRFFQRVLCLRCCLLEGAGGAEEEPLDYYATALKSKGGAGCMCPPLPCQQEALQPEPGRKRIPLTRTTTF
# T2 sequence (P30872 whole entry): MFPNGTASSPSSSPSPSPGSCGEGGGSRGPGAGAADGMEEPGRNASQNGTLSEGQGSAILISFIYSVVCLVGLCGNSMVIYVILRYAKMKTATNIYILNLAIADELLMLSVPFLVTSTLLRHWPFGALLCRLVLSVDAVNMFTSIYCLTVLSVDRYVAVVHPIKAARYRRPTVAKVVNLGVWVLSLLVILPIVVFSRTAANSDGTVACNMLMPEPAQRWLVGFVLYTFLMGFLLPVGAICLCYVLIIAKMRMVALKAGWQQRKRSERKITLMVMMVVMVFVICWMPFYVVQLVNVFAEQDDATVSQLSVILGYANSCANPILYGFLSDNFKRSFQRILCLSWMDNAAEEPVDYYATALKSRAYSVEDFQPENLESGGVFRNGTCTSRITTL
# T5 sequence (P35346 whole entry): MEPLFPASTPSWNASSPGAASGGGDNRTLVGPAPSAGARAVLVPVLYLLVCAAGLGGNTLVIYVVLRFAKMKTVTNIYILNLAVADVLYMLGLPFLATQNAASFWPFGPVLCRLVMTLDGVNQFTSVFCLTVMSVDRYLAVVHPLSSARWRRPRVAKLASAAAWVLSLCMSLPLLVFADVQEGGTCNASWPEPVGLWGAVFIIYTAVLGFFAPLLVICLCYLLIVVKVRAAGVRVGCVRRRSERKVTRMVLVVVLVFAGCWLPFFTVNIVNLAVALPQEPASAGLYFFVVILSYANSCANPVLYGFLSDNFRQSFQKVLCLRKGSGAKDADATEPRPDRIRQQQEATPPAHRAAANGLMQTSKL
molecule,measurement,setting,value
CC(C)NCc1ccc(C[C@@H]2NC(=O)[C@@H](Cc3c[nH]c4ccccc34)NC(=O)[C@H](Cc3ccccc3)NC(=O)[C@H](Cc3ccccc3)NC(=O)[C@H](CCCCN)NC(=O)[C@@H](NC(N)=O)CSSC[C@@H](C(=O)O)NC(=O)[C@H](CO)NC(=O)[C@H]([C@@H](C)O)NC(=O)[C@H](Cc3ccc(O)c(I)c3)NC(=O)[C@H]([C@@H](C)O)NC2=O)cc1 [Peptide No. 12B] (KFF[dW][Phe(4-CH2NHiPr)]T[Tyr(3-I)]TSC-OH; linker N-10 via X1),IC50,[1],> 10000 nM
"CC(C)NCc1ccc(C[C@@H]2NC(=O)[C@@H](Cc3c[nH]c4ccccc34)NC(=O)[C@H](Cc3ccccc3)NC(=O)[C@H](Cc3ccccc3)NC(=O)[C@H](CCCCN)NC(=O)[C@H](NC(N)=O)CSSC[C@@H](C(=O)O)NC(=O)[C@H](CO)NC(=O)[C@H]([C@@H](C)O)NC(=O)[C@H](Cc3ccc(O)cc3)NC(=O)[C@H]([C@@H](C)O)NC2=O)cc1 [Peptide No. 12C, (cyclo)CbmD-Cys-Lys-Phe-Phe-D-Trp-IAmp-Thr-Tyr-Thr-Ser-Cys-OH] (KFF[dW][Phe(4-CH2NHiPr)]TYTSC-OH; linker N-10 via X2)",IC50,[2],17.4 nM
same,IC50,[1],> 10000 nM
same,IC50,[3],> 1000 nM
same,IC50,[4],> 10000 nM
same,IC50,[5],> 1000 nM
"CC(C)NCc1ccc(C[C@H]2C(=O)N[C@@H]([C@@H](C)O)C(=O)N[C@@H](Cc3ccccc3)C(=O)N[C@@H]([C@@H](C)O)C(=O)N[C@@H](CO)C(=O)N[C@H](C(=O)O)CSSC[C@H](NC(=O)[C@@H](N)Cc3ccc(O)cc3)C(=O)N[C@@H](CCCCN)C(=O)N[C@@H](Cc3ccccc3)C(=O)N[C@@H](Cc3ccccc3)C(=O)N[C@H](Cc3c[nH]c4ccccc34)C(=O)N2C)cc1 [Peptide No. 27, (cyclo)H-Tyr-Cys-Lys-Phe-Phe-D-Trp-N^αMeIAmp-Thr-Phe-Thr-Ser-Cys-OH] (H-YCKFF[dW][NMePhe(4-CH2NHiPr)]TFTSC-OH; disulfide 2-12)",IC50,[2],25 nM
same,"binding to SSTR2, in words",[1]; Peptide No. 27 iodinated,No specific binding
same,IC50,[1],> 10000 nM
same,"binding to SSTR3, in words",[3]; Peptide No. 27 iodinated,No specific binding
same,IC50,[3],> 1000 nM
same,"binding to SSTR4, in words",[4]; Peptide No. 27 iodinated,No specific binding
same,IC50,"[4]; inhibition of radioligand binding of 125I-[Leu8,D-Trp22,Tyr24]SRIF-28, cloned receptor, table",300 nM
(cyclo 3-14)MeCbm-Cys-Lys-Phe-Phe-D-Trp-N^αMeIAmp-Thr-Tyr-Thr-Ser-Cys-OH [Peptide No. 17],"binding strength and selectivity for SSTR1, in words",[2],bind strongly and selectively
(cyclo) (DOTA)Cys-Lys-Phe-Phe-D-Trp-N^αMeIAmp-Thr-Tyr-Thr-Ser-Cys-OH [Peptide No. 25],"binding strength and selectivity for SSTR1, in words",[2],continue to bind strongly and selectively
(cyclo) (DPTA)Cys-Lys-Phe-Phe-D-Trp-N^αMeIAmp-Thr-Tyr-Thr-Ser-Cys-OH [Peptide No. 26],"binding strength and selectivity for SSTR1, in words",[2],continue to bind strongly and selectively
(cyclo)Biucys-Lys-Phe-Phe-D-Trp-N^αMeIAmp-Thr-Tyr-Thr-Ser-Cys-OH [Peptide No. 18],"binding strength and selectivity for SSTR1, in words",[2],bind strongly and selectively
